Where a name gives a salt, the structure may show the parent alone.
Key:
[1] = system: skeletal muscle malate dehydrogenase (MDH); experiment: Skeletal muscle malate dehydrogenase (MDH) activity after forced swimming test; format: in vivo, BALB/c mice; conditions: Program II; male mice; Fluoxetine 10 mg/kg i.p. daily
[2] = Blood (serum) biochemical parameters after 28-day treatment; format: in vivo, BALB/c mice; conditions: male mice, 28 days
[3] = system: skeletal muscle lactate dehydrogenase (LDH); experiment: Skeletal muscle lactate dehydrogenase (LDH) activity after forced swimming test; format: in vivo, BALB/c mice; conditions: Program II; male mice; Fluoxetine 10 mg/kg i.p. daily
[4] = format: in vivo, BALB/c mice; conditions: Program II; male mice; Fluoxetine 10 mg/kg i.p. daily, 4 weeks

## CNCCC(Oc1ccc(C(F)(F)F)cc1)c1ccccc1 (centres unmarked) [Fluoxetine, fluoxetine hydrochloride]
[1]
  increase of MDH activity compared to the vehicle control treatment: 1.1 fold
[2]; Fluoxetine 10 mg/kg i.p. daily
  ALB, albumin (serum): 3.67 ± 0.28 g/dL
  ALP, alkaline phosphatase (serum): 501.2 ± 21.2 U/L
  CHO, cholesterol (serum): 136.5 ± 42.9 mg/dL
  CTE, creatinine (serum): 0.45 ± 0.05 mg/dL
  GLU, glucose (serum): 207.0 ± 12.6 mg/dL
  GOT, glutamic oxaloacetic transaminase (serum): 171.0 ± 19.8 U/L
  GPT, glutamic pyruvic transaminase (serum): 61.2 ± 19.2 U/L
  HDL, high-density lipoprotein (serum): 136.6 ± 15.3 mg/dL
  LDH, lactate dehydrogenase (serum): 362.7 ± 65.3 U/L
  TBIL, total bilirubin (serum): 0.65 ± 0.04 mg/dL
  TG, triglyceride (serum): 288.3 ± 27.1 mg/dL
  TP, total protein (serum): 5.01 ± 0.35 g/dL
  UA, uric acid (serum): 2.77 ± 0.32 mg/dL
[2]; Fluoxetine i.p.
  serum biochemical parameters: no significant difference and fall within the reference range of normal or healthy mice
[3]
  increase of LDH activity compared to the vehicle control treatment: 1.3 fold
[4]
  body weight, feed and water intake: did not have significant differences

Source: US20240009259A1, “USE OF CRASSOCEPHALUM RABENS EXTRACT IN THE PREVENTION AND/OR TREATMENT OF FATIGUE AND/OR DEPRESSION” (ACADEMIA SINICA, priority 2021, published 2024)
